In test [1] the test system is Actinomyces viscosus ATCC 27044. Kind of test: Antibacterial MIC, micro-dilution method. The format is cell-based. The settings on record: minimum inhibitive concentration; 2-fold dilution series 250-0.12 mg/L, ceiling 250 ppm; 37 °C, 18-24 h; unit not given. As to the method: (§1) A single colony was picked from the Trypticase Digested Soybean peptone agar blood plate (TSA5B) of ordinarily stored bacteria species and used to inoculate corresponding broth culture medium, which was cultivated in a microaerobic environment (P.g needs anaerobic cultivation) with 95% air, 5% CO2 at 37.0° C.±1.0° C., wherein S.m was cultivated for 18-24 h, and the remaining two species were cultivated for 40-48 h. Then corresponding broth cultivate medium was used to adjust the turbidity of the bacteria suspension to 0.5^# McFarland standard, equivalent to 1.0×10^8 CFU/mL.
(§2) The operating steps were:
(§3) a. Preparation of the stock solution of antibacterial pharmaceutical: 1% stock solution of various antibacterial pharmaceuticals was prepared with 100% pure ethanol as solvent. The prepared stock solution was filtered to eliminate bacteria, and was distributed into small portions to be used.
(§4) b. Range of measured concentration: the present experiment used 250 ppm as the ceiling measured concentration of the anti-bacterial pharmaceutical.
(§5) c. Measuring method: micro-dilution method.
(§6) First, 100 μL broth medium was added to each well of the 96-well plate, then 100 μL sterile anti-bacteria pharmaceutical solution, which was diluted 10-fold (1000 mg/L), was added to each well of the first column. Then each well of the first column was mixed repeatedly for 7-8 times using a multi-channel micropipet, and 100 μL sample was transferred to the second column after sufficiently mixing the pharmaceutical with TSB. After being mixed similarly for 7-8 times, 100 μL sample was transferred to the third column, and likewise to the wells of the remaining columns. Thus the concentration of the pharmaceutical was gradiently diluted 2-fold between the columns, from 500 mg/L in the first column to 0.24 mg/L in the last column (the 12th column).
(§7) The bacteria to be tested and the standard bacteria were prepared using the same method as above. […] 0.12 mg/L, and the final inoculation quantity was about […] or 5×10^6 bacteria in each well. […]

The subject of test [2] is Streptococcus mutans ATCC 25175. The experiment in a line: Antibacterial MIC, micro-dilution method. As to conditions: minimum inhibitive concentration; 2-fold dilution series 250-0.12 mg/L, ceiling 250 ppm; 37 °C, 18-24 h; unit not given. The format is cell-based. On the procedure:
as §1, §2, §3, §4, §5, §6, §7
A general note: Dilution methods test growth across graded concentrations, often in twofold steps.

Test [3] relates to Porphyromonas gingivalis ATCC 33277. Kind of test: Antibacterial MIC, micro-dilution method. The format is cell-based. The settings on record: minimum inhibitive concentration; anaerobic; 2-fold dilution series 250-0.12 mg/L, ceiling 250 ppm; 37 °C, 18-24 h; unit not given. On the procedure: as §1, §2, §3, §4, §5, §6, §7
The subject of another test is IL-1β. Kind of test: Anti-inflammatory effect in KB cells, LUMINEX analysis of IL-1β. The format is cell-based, human. The settings on record: KB cell supernatant; the larger the value, the stronger the anti-inflammatory ability; test concentration not given. On the procedure:
(§8) Anti-inflammatory activity was assessed using the KB cell (the epidermis cancer cell in human oral cavity). During the experiment, the KB cell inoculated in the cultivating plate was treated with or without positive control or compound Morusin A. After the treatment, the supernatant of the cultivating medium was collected and stored in −80° C. refrigerator. Inflammation was assessed by measuring several inflammation markers: Prostaglandin E2 (PGE2) in the supernatant was detected by Enzyme-linked immunosorbent assay, and LUMINEX™ multifunctional liquid-phase chip analysis system was used for the detection of granulocyte monocyte colony stimulating factor (GM-CSF), tumor necrosis factor-alpha (TNF-α), and interleukins 1-beta and 6 (IL-1β and IL-6).
(§9) LUMINEX™ multifunctional liquid-phase chip analyses of GM-CSF, TNF-α, IL-1 and IL-6: The 96-well plate was enclosed with enclosing liquid for 30 minutes. Fluorescent microspheres were added into the 96-well plate after dilution. The standard and the samples to be measured were added, and incubated overnight at 4° C. The next day, the supernatant was discarded and 50 μL GM-CSF, TNF-α, IL-1β and IL-6 antibodies were added to each well. After being rinsed for 4 times, the 96-well plate was placed in a shaking table, which was in ambient temperature, to keep the plate away from light for one hour. […]

The next test relates to TNF-α. Kind of test: Anti-inflammatory effect in KB cells, LUMINEX analysis of TNF-α. The format is cell-based, human. As to conditions: KB cell supernatant; the larger the value, the stronger the anti-inflammatory ability; test concentration not given. As to the method: as §8, §9
In the next test the test system is IL-6. The experiment in a line: Anti-inflammatory effect in KB cells, LUMINEX analysis of IL-6. The settings on record: KB cell supernatant; the larger the value, the stronger the anti-inflammatory ability; test concentration not given. The format is cell-based, human. On the procedure:
as §8, §9

For another test, the system named is GM-CSF. The experiment in a line: Anti-inflammatory effect in KB cells, LUMINEX analysis of GM-CSF. The format is cell-based, human. As to conditions: KB cell supernatant; the larger the value, the stronger the anti-inflammatory ability; test concentration not given. As to the method: as §8, §9

On to `CC1=C[C@H]2c3c(O)cc(-c4cc5ccc(O)cc5o4)cc3O[C@]3(c4ccc(O)cc4O)Oc4cc(O)ccc4[C@H](C1)[C@@H]23` [Morusin A], for which the “MIC, A. v ATCC 27044” value in test [1] was found to be 3.9. For the same compound, in test [2], the “MIC, S. m ATCC 25175” value came to 3.9. In test [3], the “MIC, P. g ATCC 33277” value is listed as 15.6. Besides, in the test on IL-1β, the “anti-inflammatory effect, IL-1β” value came out at 23%. In addition, in the test with TNF-α, the “anti-inflammatory effect, TNF-α” value is listed as 93%. For the same compound, the “anti-inflammatory effect, IL-6” value with IL-6 is reported as 53%. Moreover, the “anti-inflammatory effect, GM-CSF” value in the test on GM-CSF amounted to 11%.
